Source: ChEMBL document CHEMBL5108056, “Discovery of Isoform-Selective Akt3 Degraders Overcoming Osimertinib-Induced Resistance in Non-Small Cell Lung Cancer Cells” (J Med Chem, 2022)
Values belong to the compound of their own block, whether it stands above or below them. Activity calls are given as the source filed them. The calls are words filed in the database; no cut-off is given here.

How the values were obtained:
NCI-H1975 [1] = test: Antiproliferative activity against human osimertinib resistant NCI-H1975 cells assessed as reduction in cell viability measured after 24 hrs by CCK-8 assay; format: functional, cell-based; details: NCI-H1975, 24 h
[2] = target: T1, RAC-alpha serine/threonine-protein kinase (Homo sapiens, UniProt P31749); test: Induction of AKT1 degradation in human NCI-H1975 cells assessed as reduction in AKT1 protein level at 1000 nM incubated for 24 hrs under serum free medium by Western blot analysis relative to control; format: cell-based
T1 sequence (P31749 whole entry): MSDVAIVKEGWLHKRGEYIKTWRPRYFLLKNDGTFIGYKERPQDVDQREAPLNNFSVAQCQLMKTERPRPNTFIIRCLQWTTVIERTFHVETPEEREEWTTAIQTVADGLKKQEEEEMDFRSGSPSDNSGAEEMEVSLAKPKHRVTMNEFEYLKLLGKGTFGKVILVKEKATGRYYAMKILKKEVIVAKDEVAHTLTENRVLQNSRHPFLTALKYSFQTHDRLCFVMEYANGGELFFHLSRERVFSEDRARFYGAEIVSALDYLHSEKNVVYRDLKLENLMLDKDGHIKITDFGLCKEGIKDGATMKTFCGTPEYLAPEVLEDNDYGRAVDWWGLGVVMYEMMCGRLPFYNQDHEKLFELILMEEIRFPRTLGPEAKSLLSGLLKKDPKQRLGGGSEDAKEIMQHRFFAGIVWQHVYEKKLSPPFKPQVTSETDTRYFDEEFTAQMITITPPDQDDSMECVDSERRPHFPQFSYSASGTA

[3] = target: T2, RAC-beta serine/threonine-protein kinase (Homo sapiens, UniProt P31751); test: Induction of AKT2 degradation in human NCI-H1975 cells assessed as reduction in AKT2 protein level incubated for 24 hrs under serum free medium by Western blot analysis; format: cell-based
T2 sequence (P31751 whole entry): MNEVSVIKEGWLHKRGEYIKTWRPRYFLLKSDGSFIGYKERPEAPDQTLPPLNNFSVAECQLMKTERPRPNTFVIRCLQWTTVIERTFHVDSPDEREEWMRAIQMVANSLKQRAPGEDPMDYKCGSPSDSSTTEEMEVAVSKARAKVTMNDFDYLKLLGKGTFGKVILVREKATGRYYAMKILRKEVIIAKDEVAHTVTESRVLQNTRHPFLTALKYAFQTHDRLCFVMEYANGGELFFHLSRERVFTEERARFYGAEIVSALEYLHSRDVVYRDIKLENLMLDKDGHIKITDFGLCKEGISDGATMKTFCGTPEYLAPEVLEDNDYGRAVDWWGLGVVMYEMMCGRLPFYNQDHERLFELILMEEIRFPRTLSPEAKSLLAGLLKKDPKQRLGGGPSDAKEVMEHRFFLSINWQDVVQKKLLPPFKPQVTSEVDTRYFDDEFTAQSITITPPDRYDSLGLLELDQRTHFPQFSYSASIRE

[4] = target: T2, RAC-beta serine/threonine-protein kinase; test: Induction of AKT2 degradation in human NCI-H1975 cells assessed as reduction in AKT2 protein level at 1000 nM incubated for 24 hrs under serum free medium by Western blot analysis relative to control; format: cell-based
[5] = target: T3, RAC-gamma serine/threonine-protein kinase (Homo sapiens, UniProt Q9Y243); test: Induction of AKT3 degradation in human NCI-H1975 cells assessed as reduction in AKT3 protein level at 1000 nM incubated for 24 hrs under serum free medium by Western blot analysis relative to control; format: cell-based
T3 sequence (Q9Y243 whole entry): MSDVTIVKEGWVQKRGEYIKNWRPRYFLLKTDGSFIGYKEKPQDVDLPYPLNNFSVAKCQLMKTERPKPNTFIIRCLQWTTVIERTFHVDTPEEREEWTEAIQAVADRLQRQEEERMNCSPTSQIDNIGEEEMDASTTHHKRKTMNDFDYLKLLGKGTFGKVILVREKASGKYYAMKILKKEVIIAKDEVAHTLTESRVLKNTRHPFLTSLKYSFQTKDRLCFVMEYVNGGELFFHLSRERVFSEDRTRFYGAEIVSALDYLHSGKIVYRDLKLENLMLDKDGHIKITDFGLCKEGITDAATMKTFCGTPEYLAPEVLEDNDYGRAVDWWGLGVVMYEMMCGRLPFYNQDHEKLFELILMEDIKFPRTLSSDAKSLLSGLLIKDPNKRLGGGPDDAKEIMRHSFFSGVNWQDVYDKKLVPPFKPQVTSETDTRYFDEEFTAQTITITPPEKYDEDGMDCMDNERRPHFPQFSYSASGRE

[6] = target: T3, RAC-gamma serine/threonine-protein kinase; test: Induction of AKT3 degradation in human NCI-H1975 cells assessed as reduction in AKT3 protein level incubated for 24 hrs under serum free medium by Western blot analysis; format: cell-based
[7] = target: T1, RAC-alpha serine/threonine-protein kinase; test: Induction of AKT1 degradation in human NCI-H1975 cells assessed as reduction in AKT1 protein level incubated for 24 hrs under serum free medium by Western blot analysis; format: cell-based
[8] = target: Epidermal growth factor receptor (Homo sapiens, UniProt P00533, T790M); test: Inhibition of EGFR T790M mutant in human NCI-H1975 cells incubated for 24 hrs under serum free medium by Western blot analysis; format: cell-based
Chain of Epidermal growth factor receptor (Homo sapiens, UniProt P00533, T790M) (P00533 25-1210 T790M limits assumed): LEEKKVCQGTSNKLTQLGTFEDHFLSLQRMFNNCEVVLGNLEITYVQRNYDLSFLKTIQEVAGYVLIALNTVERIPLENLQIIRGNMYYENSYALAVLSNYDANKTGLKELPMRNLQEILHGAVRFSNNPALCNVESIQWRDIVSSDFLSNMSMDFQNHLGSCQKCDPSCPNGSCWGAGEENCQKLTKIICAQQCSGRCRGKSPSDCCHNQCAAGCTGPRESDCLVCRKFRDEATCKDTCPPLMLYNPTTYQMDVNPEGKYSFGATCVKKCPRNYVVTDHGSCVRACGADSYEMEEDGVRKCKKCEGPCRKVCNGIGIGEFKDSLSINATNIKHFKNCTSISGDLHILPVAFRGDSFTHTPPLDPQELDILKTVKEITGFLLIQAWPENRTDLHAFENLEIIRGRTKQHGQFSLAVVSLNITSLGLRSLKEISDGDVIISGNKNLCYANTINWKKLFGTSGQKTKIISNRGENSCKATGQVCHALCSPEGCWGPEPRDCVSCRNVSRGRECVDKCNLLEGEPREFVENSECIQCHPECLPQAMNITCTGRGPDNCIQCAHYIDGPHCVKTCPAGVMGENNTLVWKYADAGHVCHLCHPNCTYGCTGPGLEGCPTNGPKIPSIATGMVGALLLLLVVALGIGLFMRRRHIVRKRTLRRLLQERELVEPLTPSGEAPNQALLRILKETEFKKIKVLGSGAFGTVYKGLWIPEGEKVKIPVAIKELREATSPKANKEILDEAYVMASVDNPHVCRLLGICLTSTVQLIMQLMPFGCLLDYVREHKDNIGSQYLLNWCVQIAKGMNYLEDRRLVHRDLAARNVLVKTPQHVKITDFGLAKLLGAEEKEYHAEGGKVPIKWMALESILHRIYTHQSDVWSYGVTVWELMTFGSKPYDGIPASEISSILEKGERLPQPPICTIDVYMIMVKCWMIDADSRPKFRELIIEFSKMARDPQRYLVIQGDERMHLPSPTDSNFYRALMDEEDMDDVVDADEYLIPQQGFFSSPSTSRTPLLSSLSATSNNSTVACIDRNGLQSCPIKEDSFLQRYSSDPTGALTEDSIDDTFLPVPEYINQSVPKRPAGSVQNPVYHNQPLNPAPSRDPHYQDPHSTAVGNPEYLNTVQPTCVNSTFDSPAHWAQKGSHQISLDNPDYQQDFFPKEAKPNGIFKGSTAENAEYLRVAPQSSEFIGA

[9] = target: T3, RAC-gamma serine/threonine-protein kinase; test: Induction of AKT3 degradation in human osimertinib resistant NCI-H1975 cells assessed as increase in AKT3 ubiquitination at 100 nM incubated for 24 hrs in the presence of proteosome inhibitor MG132 by immunoprecipitation analysis; format: cell-based
[10] = Toxicity in NOD-SCID mouse xenografted with human PC-9 cells assessed as change in body weight at 20 mg/kg, ip qd administered once every 2 days for 28 days; format: organism-based; details: in vivo, 672 h, time 28 day
[11] = target: T3, RAC-gamma serine/threonine-protein kinase; test: Induction of AKT3 degradation in human osimertinib resistant NCI-H1975 cells assessed as reduction in AKT3 protein level incubated for 24 hrs by Western blot analysis; format: cell-based; details: dose 1.6-1000 nM, DDE = dose-dependent effect
[12] = target: T3, RAC-gamma serine/threonine-protein kinase; test: Induction of AKT3 degradation in human NCI-H1299 cells assessed as reduction in AKT3 protein level incubated for 24 hrs by Western blot analysis; format: cell-based; details: dose 1.6-1000 nM, DDE = dose-dependent effect
[13] = target: T3, RAC-gamma serine/threonine-protein kinase; test: Induction of AKT3 degradation in human A549 cells assessed as reduction in AKT3 protein level incubated for 24 hrs by Western blot analysis; format: cell-based; details: dose 1.6-1000 nM, DDE = dose-dependent effect
[14] = target: T3, RAC-gamma serine/threonine-protein kinase; test: Induction of AKT3 degradation in human NCI-H460 cells assessed as reduction in AKT3 protein level incubated for 24 hrs by Western blot analysis; format: cell-based; details: dose 1.6-1000 nM, DDE = dose-dependent effect
[15] = target: Epidermal growth factor receptor (Homo sapiens, UniProt P00533); test: Inhibition of EGFR in human NCI-H1975 cells; format: cell-based
Chain of Epidermal growth factor receptor (Homo sapiens, UniProt P00533) (P00533 whole entry): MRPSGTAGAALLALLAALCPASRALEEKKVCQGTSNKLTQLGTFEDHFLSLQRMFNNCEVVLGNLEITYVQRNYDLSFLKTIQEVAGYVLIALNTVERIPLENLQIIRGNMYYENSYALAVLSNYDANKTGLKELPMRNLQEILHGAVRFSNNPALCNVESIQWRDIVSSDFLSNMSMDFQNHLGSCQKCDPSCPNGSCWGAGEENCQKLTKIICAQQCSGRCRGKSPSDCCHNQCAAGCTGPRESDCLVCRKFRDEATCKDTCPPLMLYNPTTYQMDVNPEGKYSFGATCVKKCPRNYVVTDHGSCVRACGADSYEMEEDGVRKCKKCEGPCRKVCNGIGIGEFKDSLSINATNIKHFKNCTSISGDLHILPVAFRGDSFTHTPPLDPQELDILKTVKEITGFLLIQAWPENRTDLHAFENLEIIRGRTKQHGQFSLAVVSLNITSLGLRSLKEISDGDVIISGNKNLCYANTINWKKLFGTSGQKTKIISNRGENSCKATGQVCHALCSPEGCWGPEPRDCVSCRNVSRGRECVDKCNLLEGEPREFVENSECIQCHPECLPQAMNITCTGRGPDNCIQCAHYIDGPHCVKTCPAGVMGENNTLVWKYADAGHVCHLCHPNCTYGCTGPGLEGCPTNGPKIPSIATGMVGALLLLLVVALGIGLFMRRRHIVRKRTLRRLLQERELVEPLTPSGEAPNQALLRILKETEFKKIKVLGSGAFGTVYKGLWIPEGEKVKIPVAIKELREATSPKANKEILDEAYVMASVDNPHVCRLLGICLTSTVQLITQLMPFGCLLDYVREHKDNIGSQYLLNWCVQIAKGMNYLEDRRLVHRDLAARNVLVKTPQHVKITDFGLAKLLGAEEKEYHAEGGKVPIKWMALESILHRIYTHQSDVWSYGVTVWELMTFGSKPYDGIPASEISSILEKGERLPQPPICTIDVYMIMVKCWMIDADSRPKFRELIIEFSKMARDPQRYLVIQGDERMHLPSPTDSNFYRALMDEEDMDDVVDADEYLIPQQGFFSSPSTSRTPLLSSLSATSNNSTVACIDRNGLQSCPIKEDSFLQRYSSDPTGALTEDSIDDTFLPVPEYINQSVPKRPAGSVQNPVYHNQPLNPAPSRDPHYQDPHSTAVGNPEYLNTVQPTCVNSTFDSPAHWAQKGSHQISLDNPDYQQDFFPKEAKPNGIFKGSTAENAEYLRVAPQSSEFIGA

NCI-H1975 [16] = test: In vivo antitumor activity against human osimertinib resistant NCI-H1975 cells xenografted in NOD-SCID mouse assessed as tumor growth inhibition at 10 mg/kg, ip qd administered every 3 days for 5 weeks relative to control; format: functional, organism-based
[17] = target: T3, RAC-gamma serine/threonine-protein kinase; test: Induction of AKT3 degradation in human osimertinib resistant NCI-H1975 cells assessed as increase in AKT3 degradation at 100 nM incubated for 24 hrs in presence of cycloheximide; format: cell-based
[18] = target: T3, RAC-gamma serine/threonine-protein kinase; test: Induction of AKT3 degradation in human HCC827 cells assessed as reduction in AKT3 protein level incubated for 24 hrs by Western blot analysis; format: cell-based; details: dose 1.6-1000 nM, DDE = dose-dependent effect
PC-9 = test: In vivo antitumor activity against human PC-9 cells xenografted in NOD-SCID mouse assessed as tumor growth inhibition at 20 mg/kg, ip qd administered once every 2 days for 28 days relative to control; format: functional; details: PC-9, 672 h, time 28 day, read-out: TGI
[19] = Toxicity in NOD-SCID mouse xenografted with human osimertinib resistant NCI-H1975 cells assessed as change in body weight at 10 to 40 mg/kg, […] administered every 3 days for 5 weeks; format: organism-based; details: in vivo, 840 h, dose 10-40 mg/kg
[20] = target: T3, RAC-gamma serine/threonine-protein kinase; test: Binding affinity to AKT3 in human NCI-H1975 cells assessed as increase in thermal stability at 2 uM by thermal shift assay; format: cell-based
[21] = target: T3, RAC-gamma serine/threonine-protein kinase; test: Induction of AKT3 degradation in human NCI-H1975 cells assessed as reduction in AKT3 protein level incubated for 24 hrs by Western blot analysis; format: cell-based; details: dose 1.6-1000 nM, DDE = dose-dependent effect
[22] = target: T3, RAC-gamma serine/threonine-protein kinase; test: Binding affinity to full length N-terminal His6-sumo tagged AKT3 (unknown origin) expressed Escherichia coli BL21 (DE3) cells incubated for 2 hrs by pull-down/ LC-MS analysis
[23] = target: T3, RAC-gamma serine/threonine-protein kinase; test: Induction of AKT3 degradation in human osimertinib resistant NCI-H1975 cells by gel fluorescence and Coomassie bright blue staining based analysis; format: cell-based
NCI-H1975 [24] = test: In vivo induction of AKT3 degradation in human osimertinib resistant cells xenografted in NOD-SCID mouse assessed as reduction in AKT3 level in tumor tissue at 10 to 40 mg/kg, ip qd administered every 3 days for 5 weeks by Western blot analysis; format: functional, organism-based; details: dose 10-40 mg/kg
[25] = target: T3, RAC-gamma serine/threonine-protein kinase; test: Induction of endogenous AKT3 degradation in human osimertinib resistant NCI-H1975 cells; format: cell-based
[26] = target: T3, RAC-gamma serine/threonine-protein kinase; test: Induction of AKT3 degradation in human PC-9 cells assessed as reduction in AKT3 protein level incubated for 24 hrs by Western blot analysis; format: cell-based; details: dose 1.6-1000 nM, DDE = dose-dependent effect
NCI-H1975 [27] = test: In vivo antitumor activity against human osimertinib resistant NCI-H1975 cells xenografted in NOD-SCID mouse assessed as tumor growth inhibition at 20 mg/kg, ip qd administered every 3 days for 5 weeks relative to control; format: functional, organism-based
NCI-H1975 [28] = test: In vivo antitumor activity against human osimertinib resistant NCI-H1975 cells xenografted in NOD-SCID mouse assessed as tumor growth inhibition at 40 mg/kg, ip qd administered every 3 days for 5 weeks relative to control; format: functional, organism-based
NCI-H1975 [29] = test: Antiproliferative activity against human NCI-H1975 cells harbouring Akt3 T305A/S472A mutant assessed as reduction in cell viability incubated for 72 hrs by CCK-8 assay; format: functional, cell-based; details: NCI-H1975, 72 h
NCI-H1975 [30] = test: Antiproliferative activity against human NCI-H1975 cells harbouring wild type Akt3 assessed as reduction in cell viability incubated for 72 hrs by CCK-8 assay; details: NCI-H1975, 72 h
NCI-H1975 [31] = test: Antiproliferative activity against human NCI-H1975 cells assessed as reduction in cell viability incubated for 72 hrs by CCK-8 assay; details: NCI-H1975, 72 h

SMILES: C=CC(=O)Nc1cccc(-n2c(=O)cc(C)c3cnc(Nc4ccc(N5CCN(CCCCCCCCNC(=O)CC67CC8CC(CC(C8)C6)C7)CC5)cc4OC)nc32)c1
Emax [2]: 55%
EC50 [3]: 82 nM
Emax [4]: 69%
Emax [5]: 75%
EC50 [6]: 52 nM
EC50 [7]: 168 nM

SMILES: C=CC(=O)Nc1cccc(-n2c(=O)cc(C)c3cnc(Nc4ccc(N5CCN(CCCCCCCCCCCCCCNC(=O)CC67CC8CC(CC(C8)C6)C7)CC5)cc4OC)nc32)c1
EC50 [3]: > 1000 nM
Emax [5]: 75%
EC50 [6]: 120 nM
EC50 [7]: > 1000 nM

SMILES: COc1cc(N2CCN(CCCCCCCCCCCCNC(=O)CC34CC5CC(CC(C5)C3)C4)CC2)ccc1Nc1ncc2c(C)cc(=O)n(-c3cccc(NC(=O)C(C)(C)C)c3)c2n1
EC50 [3]: > 1000 nM
Emax [5]: 77%
EC50 [6]: 57 nM
EC50 [7]: > 1000 nM

SMILES: C=CC(=O)Nc1cccc(-n2c(=O)cc(C)c3cnc(Nc4ccc(N5CCN(CCCCCCCCCCCCNC(=O)CC67CC8CC(CC(C8)C6)C7)CC5)cc4OC)nc32)c1
EC50 [3]: > 1000 nM
EC50 [8]: 20.1 nM
Emax [5]: 73%
EC50 [6]: 52 nM
EC50 [7]: > 1000 nM

SMILES: COc1cc(N2CCN(CCCCCCCCCCCCNC(=O)CC34CC5CC(CC(C5)C3)C4)CC2)ccc1Nc1ncc2c(C)cc(=O)n(-c3cccc(NC(=O)C4CC4)c3)c2n1
Activity [9]: Active
Activity [10]: Non-Toxic
Activity [11]: Dde
Activity [12]: Dde
Activity [13]: Dde
Activity [14]: Dde
EC50 [15]: 579 nM
Activity (NCI-H1975 [16]): Active
EC50 [3]: > 1000 nM
Activity [17]: Active
Activity [18]: Dde
inhibition in vivo at 20 mg/kg (PC-9): 75%
Activity [19]: Non-Toxic
Activity [20]: Active
Activity [21]: Dde
Activity [22]: Active
Activity [23]: Active
Emax [5]: 88%
EC50 [6]: 13 nM
Activity (NCI-H1975 [24]): Active
Activity [25]: Active
IC50 (NCI-H1975 [1]): 7 nM
Activity [26]: Dde
Activity (NCI-H1975 [27]): Active
EC50 [7]: > 1000 nM
Activity (NCI-H1975 [28]): Active

SMILES: COc1cc(N2CCN(CCCCCCCCCCCCNC(=O)CC34CC5CC(CC(C5)C3)C4)CC2)ccc1Nc1ncc2c(C)cc(=O)n(-c3ccc(NC(=O)C4CC4)cc3)c2n1
EC50 [3]: > 1000 nM
EC50 [6]: > 1000 nM
IC50 (NCI-H1975 [1]): > 10000 nM
EC50 [7]: > 1000 nM

More lines, now with the values ahead:

IC50 (NCI-H1975 [1]): 2420 nM
SMILES: C[C@@H]1CC(O)c2ncnc(N3CCN(C(=O)[C@H](CNCCCCCCCCCCc4cccc5c4C(=O)N(C4CCC(=O)NC4=O)C5=O)c4ccc(Cl)cc4)CC3)c21 (mixture of isomers)

IC50 (NCI-H1975 [1]): > 20000 nM
SMILES: CC(C)NC[C@@H](C(=O)N1CCN(c2ncnc3c2[C@H](C)C[C@H]3O)CC1)c1ccc(Cl)cc1 [IPATASERTIB]

EC50 [3]: > 1000 nM
EC50 [6]: > 1000 nM
EC50 [7]: > 1000 nM
SMILES: C=CC(=O)Nc1cccc(-n2c(=O)cc(C)c3cnc(Nc4ccc(N5CCN(C)CC5)cc4OC)nc32)c1
